Test results from patent US12030878B2 (BRISTOL-MYERS SQUIBB COMPANY, priority 2017, dated 2024).

Assays:
Type in all cases: cell-based
human TLR7 = target: T1, human TLR7 (Homo sapiens, UniProt Q9NYK1); test: TLR7 inhibition reporter assay (HEK-Blue SEAP); conditions: HEK-Blue cells overexpressing human TLR7, stimulated with gardiquimod 7.5 μM, 22 hour incubation
T1 construct: host or cells: HEK-Blue cells
T1 sequence (Q9NYK1 27-1049): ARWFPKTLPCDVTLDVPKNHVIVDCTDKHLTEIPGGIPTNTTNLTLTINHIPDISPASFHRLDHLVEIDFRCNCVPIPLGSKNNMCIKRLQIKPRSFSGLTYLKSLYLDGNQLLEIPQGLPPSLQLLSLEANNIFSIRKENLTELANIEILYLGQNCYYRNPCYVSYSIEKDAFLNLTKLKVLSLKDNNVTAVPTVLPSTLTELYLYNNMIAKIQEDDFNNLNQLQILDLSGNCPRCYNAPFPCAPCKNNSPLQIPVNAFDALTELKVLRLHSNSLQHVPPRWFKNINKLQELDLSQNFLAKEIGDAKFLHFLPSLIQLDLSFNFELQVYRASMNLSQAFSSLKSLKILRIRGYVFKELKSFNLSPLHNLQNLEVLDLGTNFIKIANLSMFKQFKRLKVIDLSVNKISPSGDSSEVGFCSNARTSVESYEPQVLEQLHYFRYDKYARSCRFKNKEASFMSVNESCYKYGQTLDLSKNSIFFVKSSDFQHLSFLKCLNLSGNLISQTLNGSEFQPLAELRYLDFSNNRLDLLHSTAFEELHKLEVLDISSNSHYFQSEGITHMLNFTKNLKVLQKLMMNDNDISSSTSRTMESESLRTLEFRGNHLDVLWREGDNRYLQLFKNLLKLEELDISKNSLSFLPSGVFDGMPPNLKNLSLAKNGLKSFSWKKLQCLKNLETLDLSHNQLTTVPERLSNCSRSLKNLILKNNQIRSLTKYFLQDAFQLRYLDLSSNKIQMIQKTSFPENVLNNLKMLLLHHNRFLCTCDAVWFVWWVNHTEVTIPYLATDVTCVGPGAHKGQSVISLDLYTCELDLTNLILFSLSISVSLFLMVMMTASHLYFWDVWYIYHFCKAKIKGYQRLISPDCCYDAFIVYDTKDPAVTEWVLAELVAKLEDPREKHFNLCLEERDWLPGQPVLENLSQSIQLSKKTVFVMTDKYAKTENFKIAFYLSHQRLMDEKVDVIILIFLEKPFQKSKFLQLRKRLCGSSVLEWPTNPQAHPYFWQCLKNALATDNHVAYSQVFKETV
Experimental: (§1) TLR7/8/9 Inhibition Reporter Assays
(§2) HEK-Blue™-cells (Invivogen) overexpressing human TLR7, TLR8 or TLR9 receptors were used for screening inhibitors of these receptors using an inducible SEAP (secreted embryonic alkaline phosphatase) reporter gene under the control of the IFN-β minimal promoter fused to five NF-κB and AP-1-binding sites. Briefly, cells are seeded into Greiner 384 well plates (15000 cells per well for TLR7, 20.000 for TLR8 and 25,000 for TLR9) and then treated with test compounds in DMSO to yield a final dose response concentration range of 0.05 nM-50 μM. After a 30 minute compound pre-treatment at room temperature, the cells are then stimulated with a TLR7 ligand (gardiquimod at a final concentration of 7.5 μM), TLR8 ligand (R848 at a final concentration of 15.9 μM) or TLR9 ligand (ODN2006 at a final concentration of 5 nM) to activate NF-κB and AP-1 which induce the production of SEAP. After a 22 hour incubation at 37° C., 5% CO2, SEAP levels are determined with the addition of HEK-Blue™ Detection reagent (Invivogen), a cell culture medium that allows for detection of SEAP, according to manufacturer's specifications. The percent inhibition is determined as the % reduction in the HEK-Blue signal present in wells treated with agonist plus DMSO alone compared to wells treated with a known inhibitor.

human TLR9 = target: T2, human TLR9 (Homo sapiens, UniProt Q9NR96); test: TLR9 inhibition reporter assay (HEK-Blue SEAP); conditions: HEK-Blue cells overexpressing human TLR9, stimulated with ODN2006 5 nM, 22 hour incubation
T2 construct: host or cells: HEK-Blue cells
T2 sequence (Q9NR96 26-1032): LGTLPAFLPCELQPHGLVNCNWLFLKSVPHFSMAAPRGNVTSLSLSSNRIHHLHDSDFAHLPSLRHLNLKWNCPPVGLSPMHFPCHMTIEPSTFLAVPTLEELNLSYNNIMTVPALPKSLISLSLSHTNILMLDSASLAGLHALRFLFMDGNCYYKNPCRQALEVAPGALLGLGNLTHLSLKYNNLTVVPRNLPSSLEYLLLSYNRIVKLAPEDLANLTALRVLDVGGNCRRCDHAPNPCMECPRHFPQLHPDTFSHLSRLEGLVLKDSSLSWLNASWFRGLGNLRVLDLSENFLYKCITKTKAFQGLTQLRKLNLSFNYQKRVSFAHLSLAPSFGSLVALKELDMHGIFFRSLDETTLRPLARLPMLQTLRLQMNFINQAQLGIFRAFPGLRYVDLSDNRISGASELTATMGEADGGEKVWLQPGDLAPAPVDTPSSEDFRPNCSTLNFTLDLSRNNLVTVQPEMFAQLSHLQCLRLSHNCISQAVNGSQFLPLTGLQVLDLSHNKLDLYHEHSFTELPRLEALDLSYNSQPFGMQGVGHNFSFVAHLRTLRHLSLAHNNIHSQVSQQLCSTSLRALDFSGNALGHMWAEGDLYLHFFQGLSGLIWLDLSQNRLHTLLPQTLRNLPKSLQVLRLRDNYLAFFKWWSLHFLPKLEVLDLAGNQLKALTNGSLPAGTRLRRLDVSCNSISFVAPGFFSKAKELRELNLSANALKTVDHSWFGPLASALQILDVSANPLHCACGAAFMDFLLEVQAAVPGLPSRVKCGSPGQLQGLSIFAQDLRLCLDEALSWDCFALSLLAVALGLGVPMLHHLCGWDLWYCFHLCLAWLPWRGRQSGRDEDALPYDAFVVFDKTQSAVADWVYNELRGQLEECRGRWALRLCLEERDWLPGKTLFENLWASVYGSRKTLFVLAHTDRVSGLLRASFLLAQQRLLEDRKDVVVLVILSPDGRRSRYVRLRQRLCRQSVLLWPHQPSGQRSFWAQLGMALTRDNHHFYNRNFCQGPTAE
Experimental: as §1, §2

human TLR8 = target: T3, human TLR8 (Homo sapiens, UniProt Q9NR97); test: TLR8 inhibition reporter assay (HEK-Blue SEAP); conditions: HEK-Blue cells overexpressing human TLR8, stimulated with R848 15.9 μM, 22 hour incubation
T3 construct: host or cells: HEK-Blue cells
T3 sequence (Q9NR97 27-1041): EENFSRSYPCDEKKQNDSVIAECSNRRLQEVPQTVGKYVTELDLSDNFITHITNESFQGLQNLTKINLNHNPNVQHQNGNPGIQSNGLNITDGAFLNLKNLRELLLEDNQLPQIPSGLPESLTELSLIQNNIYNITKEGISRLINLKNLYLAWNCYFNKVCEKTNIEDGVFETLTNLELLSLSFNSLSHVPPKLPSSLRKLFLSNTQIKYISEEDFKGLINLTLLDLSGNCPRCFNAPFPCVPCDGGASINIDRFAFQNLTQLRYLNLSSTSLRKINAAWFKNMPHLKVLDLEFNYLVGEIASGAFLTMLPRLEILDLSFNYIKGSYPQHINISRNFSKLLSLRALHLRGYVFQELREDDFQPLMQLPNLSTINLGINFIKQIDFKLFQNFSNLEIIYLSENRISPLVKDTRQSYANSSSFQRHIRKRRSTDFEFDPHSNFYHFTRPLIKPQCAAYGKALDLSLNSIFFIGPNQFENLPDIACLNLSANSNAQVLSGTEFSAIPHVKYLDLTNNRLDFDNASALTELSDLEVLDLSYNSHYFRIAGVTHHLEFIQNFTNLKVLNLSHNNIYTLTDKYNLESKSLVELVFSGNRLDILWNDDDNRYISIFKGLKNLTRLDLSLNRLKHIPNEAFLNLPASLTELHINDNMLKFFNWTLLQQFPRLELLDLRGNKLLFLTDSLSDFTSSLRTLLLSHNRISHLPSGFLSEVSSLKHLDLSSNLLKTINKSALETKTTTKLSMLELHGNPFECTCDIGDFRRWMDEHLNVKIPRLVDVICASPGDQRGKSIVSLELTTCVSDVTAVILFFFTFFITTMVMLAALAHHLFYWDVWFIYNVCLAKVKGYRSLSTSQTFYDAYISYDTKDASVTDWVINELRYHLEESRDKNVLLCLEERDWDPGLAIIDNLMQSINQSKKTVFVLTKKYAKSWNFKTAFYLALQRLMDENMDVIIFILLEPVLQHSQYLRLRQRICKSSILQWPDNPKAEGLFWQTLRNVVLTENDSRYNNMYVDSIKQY
Experimental: as §1, §2

Structure (SMILES)	IC50 (human TLR7) [nM]	IC50 (human TLR9) [nM]	IC50 (human TLR8) [nM]
Cc1cc(-c2[nH]c3ccc(O[C@H]4CCCN(C(=O)CN(C)C)C4)cc3c2C(C)C)cn(C)c1=O [Example 98, (S)-5-(5-((1-(dimethylglycyl)piperidin-3-yl)oxy)-3-isopropyl-1H-indol-2-yl)-1,3-dimethylpyridin-2(1H)-one]	7.6	11100	16.5
Cc1cc(-c2[nH]c3ccc(OC4CCN(CCC(F)(F)F)CC4)cc3c2C(C)C)ccn1 [Example 187, 3-isopropyl-2-(2-methylpyridin-4-yl)-5-((1-(3,3,3-trifluoropropyl)piperidin-4-yl)oxy)-1H-indole]	257		3.9
Cc1cc(-c2[nH]c3ccc(OCc4c[nH]cn4)cc3c2C(C)C)ccn1 [Example 178, 5-((1H-imidazol-4-yl)methoxy)-3-isopropyl-2-(2-methylpyridin-4-yl)-1H-indole]		> 50000	
Cc1cc(-c2[nH]c3ccc(OCc4c[nH]cn4)cc3c2C(C)C)ccn1 [Example 176, 5-((1H-imidazol-4-yl)methoxy)-3-isopropyl-2-(2-methylpyridin-4-yl)-1H-indole]		13600	
CNC(=O)CN1CCC(Oc2ccc3[nH]c(-c4cn(C)c(=O)c(C)c4C)c(C(C)C)c3c2)CC1 [Example 115, 2-(4-((3-isopropyl-2-(1,4,5-trimethyl-6-oxo-1,6-dihydropyridin-3-yl)-1H-indol-5-yl)oxy)piperidin-1-yl)-N-methylacetamide]	39.7		8.6

Further compounds by falling IC50 (human TLR9), results first:

IC50 (human TLR7) [nM]	IC50 (human TLR9) [nM]	IC50 (human TLR8) [nM]	Structure (SMILES)
5.6	3750	3.4	Cc1c(-c2[nH]c3ccc(OC4CCN(C)CC4)cc3c2C(C)C)cn(C)c(=O)c1Cl [Example 46, 3-chloro-5-(3-isopropyl-5-((1-methylpiperidin-4-yl)oxy)-1H-indol-2-yl)-1,4-dimethylpyridin-2(1H)-one]
1.1	3160	3.5	Cc1cc(-c2[nH]c3ccc(OCC4CN(CC(C)(C)O)C4)cc3c2C(C)C)cn2ncnc12 [Example 26, 1-(3-(((3-isopropyl-2-(8-methyl-[1,2,4]triazolo[1,5-a]pyridin-6-yl)-1H-indol-5-yl)oxy)methyl)azetidin-1-yl)-2-methylpropan-2-ol]
50.2	2990	22.6	Cc1cc(-c2[nH]c3ccc(OC4CCC(OC5CCNCC5)CC4)cc3c2C(C)C)ccn1 (centres unmarked) [Example 185, 3-isopropyl-2-(2-methylpyridin-4-yl)-5-((4-(piperidin-4-yloxy)cyclohexyl)oxy)-1H-indole]
	1810	2.6	COc1cc(-c2[nH]c3ccc(OC4CCN(CC(=O)N(C)C)CC4)cc3c2C(C)C)cn2ncnc12 [Example 93, 2-(4-((3-isopropyl-2-(8-methoxy-[1,2,4]triazolo[1,5-a]pyridin-6-yl)-1H-indol-5-yl)oxy)piperidin-1-yl)-N,N-dimethylacetamide]
1200	1540	474	Cc1cc(-c2[nH]c3ccc(OCC(=O)N4CCC(CN)CC4)cc3c2C(C)C)ccn1 [Example 147, 1-(4-(aminomethyl)piperidin-1-yl)-2-((3-isopropyl-2-(2-methylpyridin-4-yl)-1H-indol-5-yl)oxy)ethan-1-one]
0.8	1150	0.7	COc1cc(-c2[nH]c3ccc(OC4CCN(C(C)C)CC4)cc3c2C(C)C)cn2ncnc12 [Example 66, 6-(3-isopropyl-5-((1-isopropylpiperidin-4-yl)oxy)-1H-indol-2-yl)-8-methoxy-[1,2,4]triazolo[1,5-a]pyridine]
119	410	23.8	Cc1cc(-c2[nH]c3ccc(OCC(=O)N4CC5CN(C)CC5C4)cc3c2C(C)C)ccn1 (centres unmarked) [Example 149, 2-((3-isopropyl-2-(2-methylpyridin-4-yl)-1H-indol-5-yl)oxy)-1-(5-methylhexahydropyrrolo[3,4-c]pyrrol-2(1H)-yl)ethan-1-one]
2.3	304	2.6	Cc1cc(-c2[nH]c3ccc(OCC4CCCN(C)C4)cc3c2C(C)C)cc(C)n1 (centres unmarked) [Example 30, 2-(2,6-dimethylpyridin-4-yl)-3-isopropyl-5-((1-methylpiperidin-3-yl)methoxy)-1H-indole]
